# Laboratory results published in patent US20230220327A1, “SERPIN PRODUCTION” (SOCIETE DES PRODUITS NESTLE S.A., priority 2019, published 2023).
# Entries after “also recorded” stand apart in the source; their conditions may differ. No end group written: not given here.
# T1: transglutaminase 2 (TG2) (Homo sapiens, UniProt P21980)
# T1 sequence (P21980 1-687): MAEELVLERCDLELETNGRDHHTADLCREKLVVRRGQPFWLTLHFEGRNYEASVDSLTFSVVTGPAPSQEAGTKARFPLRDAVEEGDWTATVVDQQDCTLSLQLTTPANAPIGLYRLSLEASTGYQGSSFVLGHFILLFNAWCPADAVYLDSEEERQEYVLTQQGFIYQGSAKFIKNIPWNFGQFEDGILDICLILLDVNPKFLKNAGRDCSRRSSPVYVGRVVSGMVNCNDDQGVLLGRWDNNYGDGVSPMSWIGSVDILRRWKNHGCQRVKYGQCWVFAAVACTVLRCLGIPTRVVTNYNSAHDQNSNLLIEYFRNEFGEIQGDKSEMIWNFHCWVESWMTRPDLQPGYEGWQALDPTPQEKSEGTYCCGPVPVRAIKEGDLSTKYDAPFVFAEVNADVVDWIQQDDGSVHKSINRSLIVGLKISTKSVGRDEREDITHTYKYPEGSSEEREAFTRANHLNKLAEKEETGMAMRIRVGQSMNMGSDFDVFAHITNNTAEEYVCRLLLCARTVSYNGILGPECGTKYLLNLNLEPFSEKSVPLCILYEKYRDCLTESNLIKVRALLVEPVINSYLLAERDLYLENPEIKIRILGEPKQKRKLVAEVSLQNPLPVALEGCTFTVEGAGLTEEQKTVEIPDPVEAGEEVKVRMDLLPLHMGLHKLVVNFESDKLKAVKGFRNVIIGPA
# B1: Papain: papain (from Worthington), previously demonstrated to induce serpin in B. breve (protein, UniProt P00784 134-345, looked up)
# Papain: IPEYVDWRQKGAVTPVKNQGSCGSCWAFSAVVTIEGIIKIRTGNLNEYSEQELLDCDRRSYGCNGGYPWSALQLVAQYGIHYRNTYPYEGVQRYCRSREKGPYAAKTDGVRQVQPYNEGALLYSIANQPVSVVLEAAGKDFQLYRGGIFVGPCGNKVDHAVAAVGYGPNYILIKNSWGTGWGENGYIRIKRGTGNSYGVCGLYTSSFYPVKN
# How the values were obtained:
# [1] = tested on: B. longum NCC 2705; assay: serpin protein levels (ELISA) in B. longum NCC 2705 grown on different carbohydrates; type: cell-based, Bifidobacterium longum subsp longum
# Description: B. longum strain CNCM 1-2618 (NCC 2705) was grown in Biolector (growth conditions—anaerobic, 37 00) in MRS+5 mM L-cysteine (MRSc) base without sugar, to which different carbohydrates were added.
# (§1) 48-well microtiter plate with pH sensor and dissolved oxygen (DO) sensor were used to culture the strains in Biolector (m2p-labs Aachen, Germany). It was continuously shaken to prevent bacteria aggregation for 8 h. Cultures were harvested by centrifugation and supernatant was removed. Pellet was resuspended in PBS supplemented with halt protease inhibitor (Sigma) and lysed using glassbeads. Lysate containing both soluble and insoluble material was then collected.
# (§2) Total protein content was measured using Pierce BCA kit (Thermofisher) and serpin protein concentration was determined using ELISA.
# B. longum NCC 2705 was cultured in Biolector (as described in Example 1) in a base of MRSc without sugar, with the addition of different glucose & galactose ratios, to a final concentration of 1%. Cultures were collected after 18 h of growth and analyzed for total & serpin protein levels (as described in Example 1).
# B. longum NCC 2705 was grown on an MRSc base without sugar, with addition of different commercially available galactooligosaccharides (GOS) at different concentrations. […] Obtained pellets were analyzed for total and serpin protein content (see Example 1). […]
# [2] = tested on: B. longum subsp. longum strains; assay: serpin protein levels (ELISA) in B. longum subsp. longum strains; type: cell-based, Bifidobacterium longum subsp longum
# Description: as §1, §2
# The serpin encoding gene and its surrounding is highly conserved within the B. longum subsp. longum species. Strains of B. longum subsp. longum were selected to represent the entire span of the genetic phylogenetic tree (Table 2). […] Obtained pellets were further analyzed for total and serpin protein content (see example 1).
# Serpin is furthermore conserved within a restricted number of Bifidobacteria species (Turroni, F. et al. Characterization of the serpin-encoding gene of Bifidobacterium breve 210B. Appl Environ Microbiol 76, 3206-3219, doi:10.1128/AEM.02938-09 (2010)). […] Obtained pellets were further analyzed for total and serpin protein content (see example 1).
# [3] = tested on: B. breve ATCC 15700 (T); assay: serpin protein levels (ELISA) in B. breve; type: cell-based; conditions: 18 h (FIG. 7)
# Description: as §1, §2
# (§3) Serpin is furthermore conserved within a restricted number of Bifidobacteria species (Turroni, F. et al. Characterization of the serpin-encoding gene of Bifidobacterium breve 210B. Appl Environ Microbiol 76, 3206-3219, doi:10.1128/AEM.02938-09 (2010)). Strains belonging to these species (Table 3) were cultured in Biolector (see example 1) in a MRSc base without sugar, to which 1% glucose, 1% galactose was added. […] Cultures were grown for 18 h and harvested. Obtained pellets were further analyzed for total and serpin protein content (see example 1).
# [4] = tested on: B. longum subsp. infantis ATCC 15697 (T); assay: serpin protein levels (ELISA) in B. longum subsp infantis; type: cell-based; conditions: 1% galactose, 18 h (FIG. 7)
# Description: as §1, §2, §3
# [5] = tested on: B. longum subsp. suis ATCC 27533 (T); assay: serpin protein levels (ELISA) in B. longum subsp suis; type: cell-based; conditions: 1% galactose, 18 h (FIG. 7)
# Description: as §1, §2, §3
# [6] = tested on: B. longum subsp. longum strains; assay: growth of B. longum subsp. longum strains on galactose as sole carbohydrate source; type: cell-based, Bifidobacterium longum subsp longum; conditions: 1% galactose, MRSc base without sugar
# Description: The serpin encoding gene and its surrounding is highly conserved within the B. longum subsp. longum species. Strains of B. longum subsp. longum were selected to represent the entire span of the genetic phylogenetic tree (Table 2). All strains were cultured in Biolector (according to example 1) in a MRSc base without sugar, to which 1% glucose, 1% galactose or a mix of glucose & galactose (respectively 0.2 & 0.8%) was added. Cultures were grown for 18 h and harvested. Obtained pellets were further analyzed for total and serpin protein content (see example 1).
# [7] = molecular target: T1, transglutaminase 2 (TG2); conditions: in-vitro; inhibits deamidation of 33-mer gliadin peptide (McCarville et al. 2015); cited from earlier work
# [8] = tested on: various forms of elastases and proteinase; conditions: Ying & Simon, 1993; cited from earlier work
# [9] = tested on: mouse model of gluten sensitivity; conditions: elafin delivered by a recombinant Lactococcus lactis (Galipeau et al., 2014); cited from earlier work
molecule,measurement,setting,value
O=C[C@H](O)[C@@H](O)[C@@H](O)[C@H](O)CO [galactose],production of serpin in the presence of glucose,"[1]; different glucose & galactose ratios, final concentration 1%, 18 h, only when glucose is depleted during fermentation (FIG. 2)",can induce production of serpin
same,serpin protein levels,"[1]; grown for 8 h in MRSc base without sugar plus carbohydrate, compared to all other sugars tested (FIG. 1)",increase
same,serpin protein levels,"[2]; 1% galactose or 0.2% glucose & 0.8% galactose vs 1% glucose, 18 h (FIGS. 5-7)",increased in all B. longum subsp. longum strains; also recorded: significant serpin protein increase
same,serpin induction,[3]; 1% galactose,"none of the B. breve ATCC 15700 (T), B. longum subsp infantis nor B. longum subsp suis strains were induced"
same,serpin induction,[4],neither induced by galactose
same,serpin induction,[5],neither induced by galactose
same,ability to grow on galactose as sole carbohydrate source,[6],Not all strains of B. longum subsp. longum were able to grow
"Elafin: human serine protease inhibitor (AQEPVKGPVSTKPGSCPIILIRCAMLNPPNRCLKDTDCPGIKKCCEGSCGMACFVPQ; ends and bridges not checked; cysteine pairing not given here; UniProt P19957 61-117, looked up)",inhibition of transglutaminase 2 (TG2),[7],moderately inhibits
same,inhibitory capacity against elastases and proteinase,[8],potent inhibitory capacity
same,gluten-induced pathology and intestine inflammation,[9],reduce gluten-induced pathology and normalise intestine inflammation
B1,serpin levels,"[2]; 0.05 mg/ml papain on top of 1% glucose, 18 h (FIG. 7)",did not increase serpin levels
same,serpin levels,[3]; 0.05 mg/ml papain on top of 1% glucose,did in the B. breve ATCC 15700 (T) strain
